Reference: US4520031A, “Method for reducing toxic effects of methyl-glyoxal bis-guanylhydrazone” (priority 1982, dated 1985)
Like-named read-outs stand apart in the source and are kept apart here.

Key:
[1] = tested on: Prostate; assay: Response to weekly MGBG, prostate; format: in vivo, human; settings: 6 evaluable patients
Description: (§1) During the course of the clinical experiments, MGBG was administered to patients in approximately weekly doses ranging from 250 to 1000 mg per square meter.
(§2) Pre-treatment minimum evaluation included chest roentgenogram, liver and renal function tests, complete blood count with differential and platelet count and serum glucose. Pre-treatment performance status was recorded for each patient in accordance with SWOG criteria.
(§3) This intravenous infusion is administered to the patient over a period of time not less than 30 minutes. Accordingly, an approximation of the patient's surface area in square meters is calculated using a height and weight to surface area nomogram (listed in Documenta Geigy, Scientific Tables (1970) p. 537) and this factor is applied in determining the appropriate amount of MGBG salt to be added to the infusion solution. […] In the absence of toxicity, subsequent doses of MGBG are increased by 100 mg/m^2 over the previous week's dose. If patients experience moderate or severe reversible toxicity, the dose is reduced by 100 mg/m^2 relative to the previous week's dose. No change in dosage strength is made for mild toxicity.

[2] = cited from earlier work
[3] = cited from earlier work; for Penile inflammation: % of male population
[4] = tested on: DNA synthesis; settings: reversed by exogenous spermidine; cited from earlier work
[5] = tested on: Lung (non-small cell); assay: Response to weekly MGBG, lung; format: in vivo, human; settings: 6 evaluable patients
Description: as §1, §2, §3

[6] = tested on: Adenocarcinoma (unknown primary); assay: Response to weekly MGBG, adenocarcinoma; format: in vivo, human
Description: as §1, §2, §3

[7] = tested on: polyamine synthesis; settings: in vitro; cited from earlier work
[8] = tested on: Colon; assay: Response to weekly MGBG, colon; format: in vivo, human; settings: 14 evaluable patients
Description: as §1, §2, §3

[9] = cited from earlier work; remark: listed apart in the source
[10] = tested on: adenocarcinoma-755; settings: Freelander and French; cited from earlier work
[11] = Group I, less than 100 mg/m^2/day
[12] = Group II, 100 to 125 mg/m^2/day
[13] = Group III, 126 to 160 mg/m^2/day
[14] = acute leukemia, iv 150 mg/m^2/day
[15] = lymphomas and solid tumors, iv 150 mg/m^2/day

## CC(C=NNC(=N)N)=NNC(=N)N [MGBG, 1,1'-[(methylethanediylidene)dinitrilo] diguanidine]
[1]
  IMP (Improvement noted): 1
  No Response: 5
[2]; patient 1, 230 mg/m^2/day
  Days to first Toxicity: 16 days
  Response: None
[2]; patient 2, 340 mg/m^2/day
  Days to first Toxicity: 7 days
  Response: None
[2]; patient 3, 256 mg/m^2/day
  Days to first Toxicity: 9 days
  Response: Partial
[2]; patient 4, 264 mg/m^2/day
  Days to first Toxicity: 7 days
  Response: Complete
[2]; patient 5, 252 mg/m^2/day
  Days to first Toxicity: 10 days
  Response: Complete
[2]; patient 6, 156 mg/m^2/day
  Days to first Toxicity: 10 days
  Response: Complete
[2]; patient 7, 194 mg/m^2/day
  Days to first Toxicity: 6 days
  Response: Complete
[2]; patient 8, 194 mg/m^2/day
  Days to first Toxicity: 7 days
  Response: Complete
[2]; patient 9, 150 mg/m^2/day
  Days to first Toxicity: 23 days
  Response: Partial
  Toxic Manifestation: None
[2]; patient 10, 150 mg/m^2/day
  Days to first Toxicity: 24 days
  Response: Complete
  Toxic Manifestation: None
[2]; patient 11, 150 mg/m^2/day
  Days to first Toxicity: 15 days
  Response: Complete
  Toxic Manifestation: None
[2]; patient 12, 150 mg/m^2/day
  Days to first Toxicity: 13 days
  Response: Complete
[2]; patient 13, 150 mg/m^2/day
  Days to first Toxicity: 13 days
  Response: Complete
  Toxic Manifestation: None
[3]; [11]
  Acroerythema (number of patients): 0 patients
  Diarrhea: 40%
  Diarrhea (number of patients): 4 patients
  Died during treatment: 42%
  Died during treatment (number of patients): 5 patients
  Erythema Nodosum: 10%
  Erythema Nodosum (number of patients): 1 patients
  Mucosal involvement: 80%
  Mucosal involvement (number of patients): 8 patients
  Penile inflammation (number of patients): 0 patients
  Vasculitis: 40%
  Vasculitis (number of patients): 4 patients
  Weight Loss (Median %): 0%
[3]; [12]
  Penile inflammation: 25%
  Acroerythema: 17%
  Acroerythema (number of patients): 4 patients
  Diarrhea: 41%
  Diarrhea (number of patients): 6 patients
  Died during treatment: 62%
  Died during treatment (number of patients): 10 patients
  Erythema Nodosum: 9%
  Erythema Nodosum (number of patients): 2 patients
  Mucosal involvement: 98%
  Mucosal involvement (number of patients): 15 patients
  Penile inflammation (number of patients): 3 patients
  Vasculitis: 25%
  Vasculitis (number of patients): 5 patients
  Weight Loss (Median %): 6%
[3]; [13]
  Penile inflammation: 23%
  Acroerythema: 17%
  Acroerythema (number of patients): 6 patients
  Diarrhea: 42%
  Diarrhea (number of patients): 15 patients
  Died during treatment: 30%
  Died during treatment (number of patients): 11 patients
  Erythema Nodosum: 12%
  Erythema Nodosum (number of patients): 3 patients
  Mucosal involvement: 91%
  Mucosal involvement (number of patients): 31 patients
  Penile inflammation (number of patients): 4 patients
  Vasculitis: 25%
  Vasculitis (number of patients): 8 patients
  Weight Loss (Median %): 10%
[3]; Group IV, over 160 mg/m^2/day
  Acroerythema: 20%
  Acroerythema (number of patients): 2 patients
  Diarrhea: 20%
  Diarrhea (number of patients): 2 patients
  Died during treatment: 83%
  Died during treatment (number of patients): 10 patients
  Erythema Nodosum (number of patients): 0 patients
  Mucosal involvement: 100%
  Mucosal involvement (number of patients): 10 patients
  Penile inflammation (number of patients): 0 patients
  Vasculitis: 20%
  Vasculitis (number of patients): 2 patients
  Weight Loss (Median %): 5%
[3]; continuous 24-hour infusion, very high initial dose then lower maintenance doses, versus daily dosing
  incidence of toxicity under other schedules: neither of these regimens altered the incidence of associated toxicity
[4]
  MGBG-mediated depression of DNA synthesis, associated changes: spermidine depletion and putrescine accumulation
[5]
  CR + PR: 2
  No Response: 4
  PR (Partial response): 2
[6]; 3 evaluable patients
  CR (Complete response): 1
  CR + PR: 1
  IMP (Improvement noted): 1
  PR (Partial response): 1
[6]; duration of CR + PR
  Duration Months: 2 Months
[7]
  intermediate concentrations acting selectively on all polyamine synthesis: 0.6 to 2.4 µg/mL
[8]
  CR + PR: 3
  No Response: 11
  PR (Partial response): 3
[9]; [14]
  Leukopenia <3000/mm^3 or <50% of initial value: 16 patients
  Leukopenia <3000/mm^3 or <50% of initial value, severe toxicity which contributed to death: 1 patients
[9]; intravenous 150 mg/m^2/day, Regelson and Holland
  response to MGBG: seen only in the presence of significant toxicity which seriously compromised any clinical improvement
[9]; iv 150 mg/m^2/day, 46 patients
  "Myositis": 5 patients
  Cutaneous lesions: 12 patients
  Diarrhea: 32 patients
  Diarrhea, severe toxicity which contributed to death: 1 patients
[9]; iv 150 mg/m^2/day, 63 courses in 46 patients
  Oropharyngeal and/or esophageal toxicity: 43 patients
[9]; iv 150 mg/m^2/day
  Hypoglycemia <60 mg %: 4 patients
  Hypoglycemia <60 mg %, severe toxicity which contributed to death: 2 patients
  Laryngitis: 14 patients
  Laryngitis, severe toxicity which contributed to death: 1 patients
  Proctitis: 2 patients
  Vulvovaginitis: 4 patients
[9]; [15]
  Leukopenia <3000 mm^3: 5 patients
  Leukopenia <3000 mm^3, severe toxicity which contributed to death: 1 patients
  Thrombocytopenia <75,000/mm^3: 3 patients
[9]; of 27 patients who died while on study
  deaths to which severe toxicity contributed: 6 patients
[10]
  antitumor activity: antitumor activity
